The record followed here is ChEMBL document CHEMBL1201862, “PubChem BioAssay data set” (2004).

The source made the active and inactive calls.

Experiment [1] concerns the target T1, Sentrin-specific protease 1 (Homo sapiens, UniProt Q9P0U3). Put plainly: Dose response confirmation of small molecule inhibitors of the catalytic domain of the SUMO protease, SENP1 in a FRET assay. The settings on record: read-out: IC50_Mean. Type of experiment: functional.
In experiment [2] the target is T2, Heat shock factor protein 1 (Mus musculus, UniProt P38532).
T2 sequence (P38532 whole entry): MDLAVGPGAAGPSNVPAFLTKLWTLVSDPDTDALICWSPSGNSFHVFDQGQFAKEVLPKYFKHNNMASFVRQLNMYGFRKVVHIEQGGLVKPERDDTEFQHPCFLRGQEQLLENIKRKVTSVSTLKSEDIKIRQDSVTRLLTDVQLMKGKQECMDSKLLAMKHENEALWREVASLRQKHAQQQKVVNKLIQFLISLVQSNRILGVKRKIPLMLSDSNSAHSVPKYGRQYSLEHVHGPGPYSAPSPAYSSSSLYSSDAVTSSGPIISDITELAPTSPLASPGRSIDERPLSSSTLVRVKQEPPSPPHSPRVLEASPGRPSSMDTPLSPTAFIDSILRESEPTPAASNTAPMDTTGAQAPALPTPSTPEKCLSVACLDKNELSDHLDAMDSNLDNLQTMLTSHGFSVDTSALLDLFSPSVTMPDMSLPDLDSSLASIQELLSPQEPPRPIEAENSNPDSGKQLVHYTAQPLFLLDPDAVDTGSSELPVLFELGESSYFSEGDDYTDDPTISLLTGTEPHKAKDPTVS
Put plainly: HSF1 potentiators in luciferase reporter cells, confirmation, cell-based, NIH3T3, luminescence, dose retest (AID 435004).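 Also: stress induced by proteasome inhibitor MG132 added 30 min after compound; luciferase reporter driven by HSF1 response element in NIH3T3 cells; actives raise luminescence as potentiators of the MG132 stress response.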 The class given is functional.

Experiment [3] addresses T1, Sentrin-specific protease 1. Put plainly: potency of human SENP1 inhibitors, dose response, biochemical, kinetic FRET (AID 651697). Type of experiment: functional. Conditions: read-out: IC50_Mean.
Experiment [4] has as its target Nuclear receptor subfamily 5 group A member 2 (Homo sapiens, UniProt O00482). Type of experiment: functional, cell-based.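 Also: HEK293T cells transfected with LRH-1 and a StAR promoter luciferase reporter; potency for inhibitors that lower LRH-1 driven reporter light.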
Experiment [5] in a line: StAR promoter reporter inhibition counter-screen, dose response, counter-screen for LRH-1 inverse agonist project, cell-based, luminescence, luciferase reporter (AID 651969). Type of experiment: functional.
The next experiment concerns the target Steroidogenic factor 1 (Homo sapiens, UniProt Q13285). Put plainly: Counterscreen for inverse agonists of the liver receptor homolog-1 (LRH-1; NR5A2): Luminescence-based cell-based high throughput dose response assay to identify inverse agonists of the Steroidogenic Factor 1 Nuclear Receptor (SF1; NR5A1). The class given is functional.
Experiment [6] has as its target Low molecular weight phosphotyrosine protein phosphatase (Homo sapiens, UniProt P24666). Type of experiment: functional. Conditions: read-out: IC50_Mean.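 Also: Dose-response confirmation assay measuring inhibition of LMPTP enzyme activity by fluorescence intensity read-out.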
Experiment [7] deals with T3, Tyrosine-protein phosphatase non-receptor type 22 (Homo sapiens, UniProt Q9Y2R2).
T3 sequence (Q9Y2R2 whole entry): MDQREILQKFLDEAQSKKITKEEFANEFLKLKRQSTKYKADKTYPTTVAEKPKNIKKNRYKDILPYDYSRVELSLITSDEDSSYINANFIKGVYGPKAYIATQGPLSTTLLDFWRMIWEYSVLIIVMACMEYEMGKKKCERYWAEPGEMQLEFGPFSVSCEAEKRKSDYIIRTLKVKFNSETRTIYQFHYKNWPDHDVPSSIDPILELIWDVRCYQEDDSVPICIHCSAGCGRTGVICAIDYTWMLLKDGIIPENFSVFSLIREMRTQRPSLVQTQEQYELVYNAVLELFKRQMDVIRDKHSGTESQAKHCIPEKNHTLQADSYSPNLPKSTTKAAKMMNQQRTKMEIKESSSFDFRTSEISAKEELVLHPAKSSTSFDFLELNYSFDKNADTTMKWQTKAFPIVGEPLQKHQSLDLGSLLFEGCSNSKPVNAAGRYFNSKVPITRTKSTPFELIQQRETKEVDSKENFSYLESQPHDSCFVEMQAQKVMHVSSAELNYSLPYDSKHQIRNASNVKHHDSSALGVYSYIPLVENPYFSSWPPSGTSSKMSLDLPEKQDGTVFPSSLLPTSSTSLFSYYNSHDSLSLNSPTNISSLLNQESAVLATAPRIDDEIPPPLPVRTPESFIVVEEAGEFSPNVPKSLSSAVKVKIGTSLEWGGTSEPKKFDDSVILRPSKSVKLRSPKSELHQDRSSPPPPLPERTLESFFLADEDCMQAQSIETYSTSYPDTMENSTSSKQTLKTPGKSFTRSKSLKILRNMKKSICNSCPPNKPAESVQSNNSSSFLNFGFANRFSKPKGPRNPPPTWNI
Put plainly: LYP phosphatase inhibition for selectivity, dose response, selectivity assay for LMPTP inhibitor project, biochemical, fluorescence, LYP catalytic domain (AID 652006). Type of experiment: functional. Conditions: read-out: IC50_Mean.

Experiment [8] addresses T4, Sentrin-specific protease 8 (Homo sapiens, UniProt Q96LD8).
T4 sequence (Q96LD8 whole entry): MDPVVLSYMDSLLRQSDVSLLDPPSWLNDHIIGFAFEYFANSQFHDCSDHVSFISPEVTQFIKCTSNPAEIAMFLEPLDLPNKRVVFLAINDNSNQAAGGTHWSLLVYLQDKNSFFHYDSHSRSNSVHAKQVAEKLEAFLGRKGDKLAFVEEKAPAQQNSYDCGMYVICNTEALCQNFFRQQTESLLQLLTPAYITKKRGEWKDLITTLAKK
The class given is functional.

The target in experiment [9] is T4, Sentrin-specific protease 8. The class given is functional. The source holds these as a separate data set.
Experiment [10] deals with T5, Methionyl-tRNA synthetase, putative (Trypanosoma brucei brucei, UniProt Q38C91).
T5 sequence (Q38C91 whole entry): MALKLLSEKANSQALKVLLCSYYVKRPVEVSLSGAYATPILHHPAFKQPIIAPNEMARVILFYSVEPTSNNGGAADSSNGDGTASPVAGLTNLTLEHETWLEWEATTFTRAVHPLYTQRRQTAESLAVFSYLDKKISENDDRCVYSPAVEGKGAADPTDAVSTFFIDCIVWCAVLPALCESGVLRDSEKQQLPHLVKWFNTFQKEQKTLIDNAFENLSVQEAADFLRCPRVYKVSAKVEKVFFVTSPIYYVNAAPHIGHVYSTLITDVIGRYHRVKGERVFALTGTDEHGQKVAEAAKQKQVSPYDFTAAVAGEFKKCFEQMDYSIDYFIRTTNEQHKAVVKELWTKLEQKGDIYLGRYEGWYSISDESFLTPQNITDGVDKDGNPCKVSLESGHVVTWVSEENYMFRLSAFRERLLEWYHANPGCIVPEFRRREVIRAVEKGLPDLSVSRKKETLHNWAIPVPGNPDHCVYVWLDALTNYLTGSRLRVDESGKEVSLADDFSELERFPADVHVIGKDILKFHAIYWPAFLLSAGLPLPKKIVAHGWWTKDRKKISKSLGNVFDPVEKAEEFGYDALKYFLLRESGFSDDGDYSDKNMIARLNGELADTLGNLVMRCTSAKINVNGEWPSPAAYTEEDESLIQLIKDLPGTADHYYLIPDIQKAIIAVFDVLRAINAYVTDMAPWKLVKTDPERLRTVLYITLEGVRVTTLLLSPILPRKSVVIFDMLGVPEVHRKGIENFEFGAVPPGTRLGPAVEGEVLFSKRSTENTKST
Type of experiment: functional, Trypanosoma brucei brucei strain 927/4 GUTat10.1.

The nature of experiment [11]: Counterscreen for inhibitors of Trypanosoma brucei methionyl tRNA synthetase (MetRS): Luminescence-based cell-based high throughput dose response assay to identify compounds that are cytotoxic to Jurkat human T lymphocyte cells. The class given is functional.
For experiment [12], the target named is T5, Methionyl-tRNA synthetase, putative. The class given is functional, Trypanosoma brucei brucei strain 927/4 GUTat10.1. The source holds these as a separate data set.
The target in experiment [13] is T6, ATP-dependent translocase ABCB1 (Homo sapiens, UniProt P08183). Put plainly: ABCG2 efflux pump inhibitor potency, dose response, Ig-MXP3 cells, JC-1, flow cytometry, set 2 (AID 504566).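 Also: flow cytometry median green fluorescence of retained JC-1 dye; potency of efflux pump inhibition measured as rising substrate retention.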 Type of experiment: functional. Conditions: read-out: EC50_MICROM_.
For experiment [14], the target named is T6, ATP-dependent translocase ABCB1. Put plainly: ABCB1 efflux inhibitor potency, dose response, Jurkat-DNR cells, JC-1, flow cytometry, set 2 (AID 504569).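 Also: potency of pump inhibitors that raise cellular JC-1 green fluorescence up to the nicardipine level.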 The class given is functional. The settings on record: read-out: EC50_MICROM_.

T6 sequence (P08183 whole entry): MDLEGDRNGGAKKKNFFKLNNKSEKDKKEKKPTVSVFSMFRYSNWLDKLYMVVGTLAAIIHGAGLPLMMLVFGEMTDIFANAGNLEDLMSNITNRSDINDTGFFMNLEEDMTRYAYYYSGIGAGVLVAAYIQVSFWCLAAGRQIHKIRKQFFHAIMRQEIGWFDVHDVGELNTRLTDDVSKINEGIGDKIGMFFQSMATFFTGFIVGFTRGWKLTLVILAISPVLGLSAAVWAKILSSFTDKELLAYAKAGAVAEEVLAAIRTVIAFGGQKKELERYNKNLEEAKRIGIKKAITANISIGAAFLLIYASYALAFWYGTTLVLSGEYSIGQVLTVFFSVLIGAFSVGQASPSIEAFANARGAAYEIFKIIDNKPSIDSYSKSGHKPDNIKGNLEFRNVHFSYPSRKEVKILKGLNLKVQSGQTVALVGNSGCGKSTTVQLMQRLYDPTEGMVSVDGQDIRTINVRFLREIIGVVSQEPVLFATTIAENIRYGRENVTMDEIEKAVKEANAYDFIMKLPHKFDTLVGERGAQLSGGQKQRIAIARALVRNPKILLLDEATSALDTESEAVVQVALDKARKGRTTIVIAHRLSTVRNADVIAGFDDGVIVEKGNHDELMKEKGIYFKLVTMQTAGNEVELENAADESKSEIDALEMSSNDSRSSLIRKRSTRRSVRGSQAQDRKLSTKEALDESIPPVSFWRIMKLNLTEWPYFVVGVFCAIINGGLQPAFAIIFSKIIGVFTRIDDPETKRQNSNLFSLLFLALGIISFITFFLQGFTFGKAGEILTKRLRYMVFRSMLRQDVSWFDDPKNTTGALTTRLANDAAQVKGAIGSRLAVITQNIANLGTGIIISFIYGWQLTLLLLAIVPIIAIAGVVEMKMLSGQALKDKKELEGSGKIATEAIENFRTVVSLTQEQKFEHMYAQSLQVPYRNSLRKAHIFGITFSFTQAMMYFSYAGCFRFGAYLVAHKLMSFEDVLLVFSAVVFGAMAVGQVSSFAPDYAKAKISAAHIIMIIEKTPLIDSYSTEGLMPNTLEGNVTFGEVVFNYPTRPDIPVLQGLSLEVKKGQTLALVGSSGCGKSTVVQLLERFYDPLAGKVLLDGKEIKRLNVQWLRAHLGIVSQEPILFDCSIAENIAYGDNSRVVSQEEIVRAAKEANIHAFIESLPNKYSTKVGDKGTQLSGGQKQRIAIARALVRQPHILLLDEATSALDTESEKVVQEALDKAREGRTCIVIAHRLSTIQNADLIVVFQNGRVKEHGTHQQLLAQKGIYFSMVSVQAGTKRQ
T1 sequence (Q9P0U3 whole entry, the tested form may be a part): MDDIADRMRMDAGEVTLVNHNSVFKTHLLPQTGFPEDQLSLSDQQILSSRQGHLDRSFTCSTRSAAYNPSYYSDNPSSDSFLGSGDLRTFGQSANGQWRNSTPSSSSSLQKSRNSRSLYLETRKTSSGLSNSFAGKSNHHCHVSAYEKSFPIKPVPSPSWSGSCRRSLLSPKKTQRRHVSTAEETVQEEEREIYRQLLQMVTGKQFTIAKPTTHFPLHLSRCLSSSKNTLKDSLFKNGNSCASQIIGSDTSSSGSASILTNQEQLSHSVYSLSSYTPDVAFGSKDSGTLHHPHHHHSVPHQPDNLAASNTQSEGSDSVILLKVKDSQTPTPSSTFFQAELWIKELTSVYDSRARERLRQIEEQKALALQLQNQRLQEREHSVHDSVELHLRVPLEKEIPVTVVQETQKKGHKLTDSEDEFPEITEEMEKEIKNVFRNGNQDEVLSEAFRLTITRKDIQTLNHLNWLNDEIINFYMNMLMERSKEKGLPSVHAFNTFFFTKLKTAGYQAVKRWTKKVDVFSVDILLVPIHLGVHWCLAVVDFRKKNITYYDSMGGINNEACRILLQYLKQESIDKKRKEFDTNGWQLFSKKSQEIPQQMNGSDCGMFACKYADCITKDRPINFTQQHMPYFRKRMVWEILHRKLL
Chain of Nuclear receptor subfamily 5 group A member 2 (O00482 whole entry): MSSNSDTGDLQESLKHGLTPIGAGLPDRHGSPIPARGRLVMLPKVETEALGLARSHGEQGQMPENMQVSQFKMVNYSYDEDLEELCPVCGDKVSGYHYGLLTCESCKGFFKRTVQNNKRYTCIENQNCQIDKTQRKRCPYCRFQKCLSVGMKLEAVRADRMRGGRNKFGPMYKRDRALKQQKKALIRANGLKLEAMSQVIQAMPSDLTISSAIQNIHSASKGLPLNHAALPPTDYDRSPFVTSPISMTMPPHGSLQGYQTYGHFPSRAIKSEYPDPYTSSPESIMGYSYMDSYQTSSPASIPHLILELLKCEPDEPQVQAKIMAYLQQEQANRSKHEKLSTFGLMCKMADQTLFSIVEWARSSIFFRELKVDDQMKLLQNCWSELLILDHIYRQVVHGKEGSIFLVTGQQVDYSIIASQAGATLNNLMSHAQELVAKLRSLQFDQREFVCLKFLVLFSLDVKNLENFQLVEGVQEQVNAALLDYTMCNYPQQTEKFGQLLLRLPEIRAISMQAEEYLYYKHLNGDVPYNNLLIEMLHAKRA
Chain of Steroidogenic factor 1 (Q13285 whole entry): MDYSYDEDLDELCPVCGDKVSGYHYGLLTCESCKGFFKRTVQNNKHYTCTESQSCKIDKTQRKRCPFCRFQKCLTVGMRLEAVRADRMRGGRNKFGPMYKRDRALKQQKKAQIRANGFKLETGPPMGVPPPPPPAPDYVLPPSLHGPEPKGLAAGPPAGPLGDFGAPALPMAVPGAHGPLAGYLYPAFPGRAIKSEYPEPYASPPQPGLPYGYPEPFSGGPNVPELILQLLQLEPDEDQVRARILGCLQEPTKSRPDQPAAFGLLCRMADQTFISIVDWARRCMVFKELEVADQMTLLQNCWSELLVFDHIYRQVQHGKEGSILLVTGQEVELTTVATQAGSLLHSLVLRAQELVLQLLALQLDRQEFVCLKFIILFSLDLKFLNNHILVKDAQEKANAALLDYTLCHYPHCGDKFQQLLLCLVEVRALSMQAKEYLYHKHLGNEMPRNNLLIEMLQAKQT
Chain of Low molecular weight phosphotyrosine protein phosphatase (P24666 whole entry): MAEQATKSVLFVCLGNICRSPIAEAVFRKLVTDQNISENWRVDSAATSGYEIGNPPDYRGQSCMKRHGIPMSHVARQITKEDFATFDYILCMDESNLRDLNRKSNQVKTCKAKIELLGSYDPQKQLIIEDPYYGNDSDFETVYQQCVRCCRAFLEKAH

As to `CSc1c(C#N)c(N)nc2sc(C(=O)c3ccccc3)c(N)c12`, the IC50 in experiment [1] was 13.8 µM (active); in experiment [3], 13.2 µM (active). Moreover, the EC50 in [2] was 95.5 µM (active).
In the case of `CCOc1ccc(NC(=O)CSc2nc(O)c3c[nH]nc3n2)cc1`, the IC50 in experiment [4] was 8.61 µM (active); in experiment [5], 35.9 µM (inactive); on Steroidogenic factor 1, 2.89 µM (active).
`NS(=O)(=O)c1ccc(CCNC(=O)c2ccc3nccnc3c2)cc1`: the figures for the IC50 in experiment [6] and in experiment [7] were 17.1 µM (active) and 54.2 µM (inactive), respectively.
For the compound `CN1CCC2(CC1)N=C(c1ccc(F)cc1)C(=S)N2C(=O)c1ccccc1`, the IC50 in [8] is > 100 µM (inactive); in experiment [9], 28.6 µM (active).
Consider `O=C(CCCOc1ccc(Cl)cc1Cl)N/N=C/c1ccccc1`, for which the IC50 is 16 µM (inactive) in experiment [10], 83.3 µM (inactive) in [11] and 110 µM (inactive) in experiment [12].
Regarding `COc1ccc(-c2cc(N3CCN(C(=O)c4ccoc4)CC3)n3nc(-c4cccc(Cl)c4)cc3n2)cc1`, the EC50 in experiment [13] is 1.3 µM (active); in [14], 4.86 µM (active).
